According to US20150152083A1, “Compounds and Compositions for Modulating EGFR Activity” (IRM LLC, A Delaware Limited Liability Company, priority 2012, published 2015):

Legend:
EGFR (L858R) = target: T1, EGFR (L858R) (Homo sapiens, UniProt P00533, L858R); assay: EGFR target modulation in engineered NIH3T3 cell lines (phospho-EGFR AlphaLISA); format: cell-based; conditions: NIH3T3 cells expressing human EGFR L858R; 3 hours compound
T1 construct: host or cells: NIH3T3
Protocol: (§1) EGFR Target Modulation in Engineered NIH3T3 Cell Lines
(§2) NIH3T3 cell lines expressing human EGFR (WT, L858R, and L858RT790M) (obtained from Matthew Meyerson's Lab at DFCI) were maintained in 10% FBS/DMEM supplemented with 100 μg/ml Penicillin/Streptomycin (Hyclone #SV30010) and 2 μg/ml Puromycin. The cells were harvested with 0.05% Trypsin/EDTA (Hyclone #SH30236.01), re-suspended in 5% FBS/DMEM Pen/Strep without Puromycin and plated at 9,000 cells per well in 50 μl of media in a 384-well black plate with clear bottoms (Greiner #789068G). The cells were allowed to incubate overnight in a 37° C., 5% CO2 humidified tissue culture incubator. A 12-point test compound curve was prepared by serial diluting a 10 μM stock 1:3 in DMSO in a 384-well compound plate (Greiner #789201L). The serial diluted compounds were transferred to the plate containing cells by using a 50 nl Pin Head device (Perkin Elmer) and the cells were placed back in the incubator for 3 hours. Only the EGFR WT-expressing cells were induced with 50 ng/ml EGF (Preprotech #AF-100-15) for 5 minutes before lysis. The media was removed and cells were lysed in 25 μl of Lysis buffer containing protease and phosphatase inhibitors (1% Triton X-100, 20 mM Tris, pH 7.5, 1 mM EDTA, 1 mM EGTA, 150 mM NaCl, 1× complete cocktail inhibitor (Roche #11 697 498 001), 1× Phosphatase Inhibitor Cocktail Set II and Set III (Sigma #P5726 and #P0044)). The plates were shaken at 4° C. for 5 minutes with foil top at maximum speed. An aliquot of 5 μl from each well was transferred to ProxiPlate™ 384-well Plus plates (PE #6008289). The plates were sealed with a foil top and frozen at −80° C. and thawed when needed.
(§3) The frozen aliquots were thawed and briefly centrifuged. All antibodies and beads were diluted in 1× AlphaLISA HiBlock Buffer (PE #AL004C). Biotinylated anti-phospho-EGFR (Y1068) (Cell Signaling #4031) was incubated with the lysate for 1 hour at room temperature at 1 nM final concentration. Goat anti-total EGFR (R&D Systems #AF231) was added and allowed to equilibrate for 1 hour at room temperature at 1 nM final concentration. Then, 10 μl of mixed beads (AlphaScreen Streptavidin Donor Beads (PE #6760002S) and AlphaLISA anti-goat IgG Acceptor Beads (PE #AL107C)) was equilibrated for 1.5 hours before reading on EnVision plate reader using the built-in settings for AlphaScreen.
(§4) Cells untreated (L858R and L858RT790M) or EGF-induced (WT) were set to 100% maximum response. For a negative control, 10 μM HKI-272 was used to normalize data to 0% of maximum response. With these parameters, the IC50's for each compound in each cell line was calculated using non-linear curve fitting analysis.

EGFR (WT) = target: T2, EGFR (WT) (Homo sapiens, UniProt P00533); assay: as above; format: cell-based; conditions: NIH3T3 cells expressing human EGFR WT; 3 hours compound; induced with 50 ng/ml EGF
T2 construct: host or cells: NIH3T3
Protocol: as §1, §2, §3, §4

EGFR(L858R/T790M) [1] = target: T3, EGFR(L858R/T790M) (Homo sapiens, UniProt P00533, L858R/T790M); assay: as above; format: cell-based; parameters: host or cells: NIH3T3; conditions: NIH3T3 cells expressing human EGFR L858R/T790M; 3 hours compound
Protocol: as §1, §2, §3, §4
Target sequence in this assay (P00533 25-1210 T790M/L858R): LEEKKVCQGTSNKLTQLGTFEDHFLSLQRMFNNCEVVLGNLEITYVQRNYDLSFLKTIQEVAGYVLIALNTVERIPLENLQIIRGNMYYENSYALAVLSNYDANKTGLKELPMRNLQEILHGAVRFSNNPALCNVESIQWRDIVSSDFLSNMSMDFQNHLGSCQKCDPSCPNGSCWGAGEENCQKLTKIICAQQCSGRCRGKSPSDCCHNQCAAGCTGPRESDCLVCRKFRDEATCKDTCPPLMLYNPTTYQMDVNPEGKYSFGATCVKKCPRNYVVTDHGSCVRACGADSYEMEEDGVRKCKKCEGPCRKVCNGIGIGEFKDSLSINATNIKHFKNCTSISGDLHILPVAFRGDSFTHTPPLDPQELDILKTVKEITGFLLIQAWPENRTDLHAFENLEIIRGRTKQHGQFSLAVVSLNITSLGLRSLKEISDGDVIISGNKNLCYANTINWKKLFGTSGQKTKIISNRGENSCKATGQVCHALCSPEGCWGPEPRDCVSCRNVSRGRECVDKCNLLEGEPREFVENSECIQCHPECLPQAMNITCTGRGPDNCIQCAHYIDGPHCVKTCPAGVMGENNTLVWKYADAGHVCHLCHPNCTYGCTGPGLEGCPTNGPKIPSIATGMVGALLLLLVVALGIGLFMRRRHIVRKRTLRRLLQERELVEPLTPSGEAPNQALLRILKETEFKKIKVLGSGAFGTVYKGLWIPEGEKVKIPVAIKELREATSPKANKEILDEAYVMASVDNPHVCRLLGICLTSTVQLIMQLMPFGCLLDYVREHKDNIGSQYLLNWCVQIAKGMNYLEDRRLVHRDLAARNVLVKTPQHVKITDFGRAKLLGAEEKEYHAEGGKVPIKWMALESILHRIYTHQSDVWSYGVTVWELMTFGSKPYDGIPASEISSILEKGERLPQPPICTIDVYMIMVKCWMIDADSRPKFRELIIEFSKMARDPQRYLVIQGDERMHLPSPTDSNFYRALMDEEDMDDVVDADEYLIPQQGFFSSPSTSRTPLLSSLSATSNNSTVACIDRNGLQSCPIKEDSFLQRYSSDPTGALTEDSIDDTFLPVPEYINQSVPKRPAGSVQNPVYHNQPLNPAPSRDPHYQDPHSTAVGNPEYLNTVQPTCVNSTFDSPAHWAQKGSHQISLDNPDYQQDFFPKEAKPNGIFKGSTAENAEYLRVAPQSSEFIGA

EGFR(L858R/T790M) [2] = target: T3, EGFR(L858R/T790M); assay: EGFR biochemical assay (HTRF), IC50 determination; parameters: purchased from Carna (GST-a.a. 669-1210); purchased Carna; conditions: 10 μM ATP
Protocol: All EGFR biochemical assays were carried out by HTRF method. The EGFR(L858RT790M) enzyme were purchased from Carna (GST-a.a. 669-1210). The substrate peptide Biotin-TK-peptide was purchased from Cis-Bio. The reaction mixtures contained 1 μM peptide substrate, 10 μM ATP, and 0.036 nM EGFR(L858RT790M) in the reaction buffer (50 mM HEPES pH 7.1, 10 mM MgCl2, 0.01% BSA, 1 mM TCEP and 0.1 mM Na3VO4) at a final volume of 10 μL. All reactions were carried out at room temperature in white ProxiPlate™ 384-well Plus plates (PerkinElmer) and were quenched with 5 μL of 0.2 M EDTA at 60 min Five μL of the detection reagents (2.5 ng PT66K and 0.05 μg SAXL per well) were added, the plates were incubated at room temperature for 1 h and then read in EnVision reader. […] For no-preincubation condition, the compounds were added to the assay solution containing ATP and peptide, and the reaction was initiated by addition of enzyme. For pre-incubation conditions, the compounds were added to the assay solution containing enzyme and peptide, and pre-incubated at room temperature for desired period of time, then the reaction was initiated by addition of ATP.
Target sequence in this assay (P00533 669-1210 T790M/L858R): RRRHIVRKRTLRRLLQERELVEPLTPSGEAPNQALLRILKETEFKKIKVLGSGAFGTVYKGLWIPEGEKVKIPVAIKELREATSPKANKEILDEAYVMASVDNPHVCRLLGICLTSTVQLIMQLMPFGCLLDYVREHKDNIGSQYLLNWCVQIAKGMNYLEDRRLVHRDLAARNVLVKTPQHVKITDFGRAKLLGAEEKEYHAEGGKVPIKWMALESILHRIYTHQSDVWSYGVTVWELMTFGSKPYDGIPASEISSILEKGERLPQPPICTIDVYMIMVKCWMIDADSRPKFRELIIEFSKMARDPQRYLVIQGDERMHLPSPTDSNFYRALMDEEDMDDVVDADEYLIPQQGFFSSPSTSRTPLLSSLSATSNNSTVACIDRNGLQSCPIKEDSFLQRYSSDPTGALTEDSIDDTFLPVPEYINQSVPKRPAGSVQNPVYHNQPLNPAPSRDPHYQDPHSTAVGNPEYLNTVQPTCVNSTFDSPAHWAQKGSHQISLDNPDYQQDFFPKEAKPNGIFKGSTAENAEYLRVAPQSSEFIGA

[3] = EGFR (L858R/T790M) IC50 (μM) 90 min pre-incubation, 90 min pre-incubation
[4] = no pre-incubation, read-out: EGFR (L858R/T790M) IC50 (μM) No pre-incubation

T2 sequence (P00533 25-1210): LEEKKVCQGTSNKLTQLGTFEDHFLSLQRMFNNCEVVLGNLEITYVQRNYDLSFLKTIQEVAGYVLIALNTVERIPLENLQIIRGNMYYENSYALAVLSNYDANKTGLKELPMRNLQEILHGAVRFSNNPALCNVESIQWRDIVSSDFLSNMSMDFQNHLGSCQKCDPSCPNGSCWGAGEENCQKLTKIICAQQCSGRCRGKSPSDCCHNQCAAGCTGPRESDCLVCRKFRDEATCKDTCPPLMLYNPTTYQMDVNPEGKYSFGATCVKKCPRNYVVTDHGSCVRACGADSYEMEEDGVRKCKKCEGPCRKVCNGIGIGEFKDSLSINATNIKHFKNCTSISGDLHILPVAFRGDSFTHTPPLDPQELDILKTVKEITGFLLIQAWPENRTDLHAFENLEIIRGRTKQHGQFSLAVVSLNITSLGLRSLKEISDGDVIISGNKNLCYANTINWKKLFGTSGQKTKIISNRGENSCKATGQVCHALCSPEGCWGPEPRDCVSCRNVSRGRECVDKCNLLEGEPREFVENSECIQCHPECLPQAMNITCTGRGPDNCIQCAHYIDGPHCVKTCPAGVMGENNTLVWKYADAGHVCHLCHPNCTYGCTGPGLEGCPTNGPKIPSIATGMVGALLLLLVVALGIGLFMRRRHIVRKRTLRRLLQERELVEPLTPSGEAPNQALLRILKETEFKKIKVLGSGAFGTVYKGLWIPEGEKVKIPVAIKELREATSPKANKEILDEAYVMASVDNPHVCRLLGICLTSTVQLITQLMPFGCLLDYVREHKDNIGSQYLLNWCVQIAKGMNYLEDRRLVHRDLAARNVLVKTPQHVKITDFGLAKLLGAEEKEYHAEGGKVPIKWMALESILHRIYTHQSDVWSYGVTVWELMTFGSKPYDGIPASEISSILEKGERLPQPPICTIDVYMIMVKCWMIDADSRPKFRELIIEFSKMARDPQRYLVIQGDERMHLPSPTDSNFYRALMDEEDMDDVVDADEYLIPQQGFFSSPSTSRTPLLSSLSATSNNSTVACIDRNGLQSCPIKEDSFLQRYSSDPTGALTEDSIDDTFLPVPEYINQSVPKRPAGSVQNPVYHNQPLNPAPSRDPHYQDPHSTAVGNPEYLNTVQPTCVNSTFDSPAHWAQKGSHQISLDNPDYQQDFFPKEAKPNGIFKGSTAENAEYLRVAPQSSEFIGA
T1 sequence (P00533 25-1210 L858R): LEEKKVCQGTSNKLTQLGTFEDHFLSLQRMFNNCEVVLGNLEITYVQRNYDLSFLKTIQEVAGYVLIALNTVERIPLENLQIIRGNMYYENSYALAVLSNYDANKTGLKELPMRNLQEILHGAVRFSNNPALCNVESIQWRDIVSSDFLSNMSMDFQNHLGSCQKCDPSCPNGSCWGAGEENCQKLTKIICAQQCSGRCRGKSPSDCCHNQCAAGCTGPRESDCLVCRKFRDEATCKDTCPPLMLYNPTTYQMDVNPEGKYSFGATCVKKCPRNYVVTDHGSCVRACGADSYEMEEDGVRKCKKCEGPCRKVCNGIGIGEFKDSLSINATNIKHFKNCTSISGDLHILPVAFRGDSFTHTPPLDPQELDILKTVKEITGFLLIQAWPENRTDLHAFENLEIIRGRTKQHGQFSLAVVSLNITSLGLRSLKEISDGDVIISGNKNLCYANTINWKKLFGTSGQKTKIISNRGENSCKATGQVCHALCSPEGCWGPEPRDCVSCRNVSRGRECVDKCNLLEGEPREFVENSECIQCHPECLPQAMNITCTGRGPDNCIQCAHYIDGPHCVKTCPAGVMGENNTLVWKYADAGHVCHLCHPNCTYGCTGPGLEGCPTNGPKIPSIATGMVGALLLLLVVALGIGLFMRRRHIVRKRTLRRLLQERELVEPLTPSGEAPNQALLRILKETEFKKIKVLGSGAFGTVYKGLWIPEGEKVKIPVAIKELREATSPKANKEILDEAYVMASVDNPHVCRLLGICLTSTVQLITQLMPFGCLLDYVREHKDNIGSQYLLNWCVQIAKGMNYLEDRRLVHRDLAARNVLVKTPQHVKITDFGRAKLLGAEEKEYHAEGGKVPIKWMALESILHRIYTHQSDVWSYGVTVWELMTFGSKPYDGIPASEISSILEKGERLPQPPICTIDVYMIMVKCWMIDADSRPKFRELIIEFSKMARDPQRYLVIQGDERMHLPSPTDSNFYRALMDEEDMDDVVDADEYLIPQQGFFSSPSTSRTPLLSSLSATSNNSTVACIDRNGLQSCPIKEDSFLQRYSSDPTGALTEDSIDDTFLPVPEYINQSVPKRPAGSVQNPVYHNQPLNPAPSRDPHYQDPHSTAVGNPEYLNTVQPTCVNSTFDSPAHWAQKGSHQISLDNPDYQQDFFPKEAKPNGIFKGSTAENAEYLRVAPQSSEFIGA

| SMILES | IC50 (EGFR (L858R)) | IC50 (EGFR (WT)) | IC50 (EGFR(L858R/T790M) [1]) | IC50 (EGFR(L858R/T790M) [2]; [3]) | IC50 (EGFR(L858R/T790M) [2]; [4]) |
| --- | --- | --- | --- | --- | --- |
| C=CC(=O)Nc1cccc(-n2c(NC(=O)c3cccc(C(F)(F)F)c3)nc3cc(CN4CCCC4)ccc32)c1 [Example 5-2, N-[1-[3-(prop-2-enamido)phenyl]-5-(pyrrolidin-1-ylmethyl)-1H-1,3-benzodiazol-2-yl]-3-(trifluoromethyl)benzamide] | 0.18 µM | > 10 µM | 0.013 µM | 0.007 µM | 0.039 µM |
| C=CC(=O)Nc1cccc(-n2c(NC(=O)c3cccc(F)c3)nc3cc(C)ccc32)c1 [Example 2-1, 3-fluoro-N-{5-methyl-1-[3-(prop-2-enamido)phenyl]-1H-1,3-benzodiazol-2-yl}benzamide] | 0.33 µM | > 10 µM | 0.028 µM | 0.003 µM | 0.023 µM |
| C=CC(=O)Nc1cccc(-n2c(NC(=O)c3cccc(C(F)(F)F)c3)nc3cc(CN4CCOCC4)ccc32)c1 [Example 5-3, N-[5-(morpholin-4-ylmethyl)-1-[3-(prop-2-enamido)phenyl]-1H-1,3-benzodiazol-2-yl]-3-(trifluoromethyl)benzamide] | 0.25 µM | > 10 µM | 0.026 µM | 0.003 µM | 0.072 µM |
| C=CC(=O)Nc1cccc(-n2c(NC(=O)c3cccc(Oc4ccccc4)c3)nc3cc(C)ccc32)c1 [Example 2-6, N-{5-methyl-1-[3-(prop-2-enamido)phenyl]-1H-1,3-benzodiazol-2-yl}-3-phenoxybenzamide] | 0.27 µM | > 10 µM | 0.062 µM | < 0.001 µM | 0.021 µM |
| C=CC(=O)Nc1cccc(-n2c(NC(=O)c3cccc(C(F)(F)F)c3)nc3cc(C)ccc32)c1 [Example 2-9, N-{5-methyl-1-[3-(prop-2-enamido)phenyl]-1H-1,3-benzodiazol-2-yl}-3-(trifluoromethyl)benzamide] | 0.55 µM | > 10 µM | 0.052 µM | 0.006 µM | 0.049 µM |
| C=CC(=O)N[C@H]1CCCC(n2c(NC(=O)c3cccc(C(F)(F)F)c3)nc3cccc(C)c32)C1 (mixture of isomers) [Example 6, trans-N-(1-(3-acrylamidocyclohexyl)-7-methyl-1H-benzo[d]imidazol-2-yl)-3-(trifluoromethyl)benzamide] | 0.69 µM | > 10 µM | 0.14 µM | 0.009 µM | 0.18 µM |
| C=CC(=O)Nc1cccc(-n2c(NC(=O)c3ccc(Cl)c(Cl)c3)nc3cc(C)ccc32)c1 [Example 2-4, 3,4-dichloro-N-{5-methyl-1-[3-(prop-2-enamido)phenyl]-1H-1,3-benzodiazol-2-yl}benzamide] | 0.33 µM | > 10 µM | 0.22 µM | 0.023 µM | 0.27 µM |
| C=CC(=O)Nc1cccc(-n2c(NC(=O)c3cccc(C(F)(F)F)c3)nc3cc(CO)ccc32)c1 [Example 3, N-(1-(3-acrylamidophenyl)-5-(hydroxymethyl)-1H-benzo[d]imidazol-2-yl)-3-(trifluoromethyl)benzamide] | 0.45 µM | > 10 µM | 0.036 µM | 0.003 µM | 0.028 µM |
| C=CC(=O)Nc1cccc(-n2c(NC(=O)c3cccc(C(F)(F)F)c3)nc3cc(COC)ccc32)c1 [Example 5-1, N-[5-(methoxymethyl)-1-[3-(prop-2-enamido)phenyl]-1H-1,3-benzodiazol-2-yl]-3-(trifluoromethyl)benzamide] | 0.86 µM | > 10 µM | 0.02 µM | < 0.001 µM | 0.022 µM |
| C=CC(=O)N[C@@H]1CCC[C@H](n2c(NC(=O)c3cccc(C(F)(F)F)c3)nc3cccc(C)c32)C1 (racemic) [Example 7, cis-N-(1-(3-acrylamidocyclohexyl)-7-methyl-1H-benzo[d]imidazol-2-yl)-3-(trifluoromethyl)benzamide] | 0.28 µM | > 10 µM | 0.037 µM | 0.002 µM | 0.039 µM |
| C=CC(=O)Nc1cccc(-n2c(NC(=O)c3ccc(F)cc3)nc3cc(C)ccc32)c1 [Example 1, N-(1-(3-acrylamidophenyl)-5-methyl-1H-benzo[d]imidazol-2-yl)-4-fluorobenzamide] | 0.053 µM | > 10 µM | 0.037 µM | 0.002 µM | 0.016 µM |

The next lines start with the values.

| IC50 (EGFR (L858R)) | IC50 (EGFR (WT)) | IC50 (EGFR(L858R/T790M) [1]) | IC50 (EGFR(L858R/T790M) [2]; [3]) | IC50 (EGFR(L858R/T790M) [2]; [4]) | SMILES |
| --- | --- | --- | --- | --- | --- |
| > 3.7 µM | > 10 µM | 0.41 µM | 0.051 µM | 0.27 µM | C=CC(=O)N[C@@H]1CCC[C@@H](n2c(NC(=O)c3cccc(C(F)(F)F)c3)nc3cc(C)ccc32)C1 (racemic) [Example 8-2, N-{5-methyl-1-[(1S,3S)-3-(prop-2-enamido)cyclohexyl]-1H-1,3-benzodiazol-2-yl}-3-(trifluoromethyl)benzamide] |
| 0.64 µM | > 10 µM | 0.38 µM | 0.013 µM | 0.18 µM | C=CC(=O)Nc1cccc(-n2c(NC(=O)c3ccc4ccccc4c3)nc3cc(C)ccc32)c1 [Example 2-8, N-{5-methyl-1-[3-(prop-2-enamido)phenyl]-1H-1,3-benzodiazol-2-yl}naphthalene-2-carboxamide] |
| 1.1 µM | > 10 µM | 0.1 µM | 0.005 µM | 0.071 µM | C=CC(=O)Nc1cccc(-n2c(NC(=O)c3cccc(C(F)(F)F)c3)nc3cc(COCC)ccc32)c1 [Example 4, N-(1-(3-acrylamidophenyl)-5-(ethoxymethyl)-1H-benzo[d]imidazol-2-yl)-3-(trifluoromethyl)benzamide] |
| 0.77 µM | > 10 µM | 0.98 µM | 0.034 µM | 0.39 µM | C=CC(=O)Nc1cccc(-n2c(NC(=O)c3ccc(C)cc3)nc3cc(C)ccc32)c1 [Example 2-3, 4-methyl-N-{5-methyl-1-[3-(prop-2-enamido)phenyl]-1H-1,3-benzodiazol-2-yl}benzamide] |
| 0.66 µM | > 8 µM | 0.11 µM | 0.003 µM | 0.085 µM | C=CC(=O)N(C)c1cccc(-n2c(NC(=O)c3cccc(C(F)(F)F)c3)nc3cc(C)ccc32)c1 [Example 2-10, N-{5-methyl-1-[3-(N-methylprop-2-enamido)phenyl]-1H-1,3-benzodiazol-2-yl}-3-(trifluoromethyl)benzamide] |
| 0.2 µM | > 10 µM | 0.08 µM | 0.002 µM | 0.054 µM | C=CC(=O)Nc1cccc(-n2c(NC(=O)c3ccc(F)c(F)c3)nc3cc(C)ccc32)c1 [Example 2-2, 3,4-difluoro-N-{5-methyl-1-[3-(prop-2-enamido)phenyl]-1H-1,3-benzodiazol-2-yl}benzamide] |
